Results published in patent publication US9512176B2, “Age inhibitors” (Centre National de la Recherche Scientifique, priority 2005, dated 2016).
Non-standard residues stand in square brackets, D forms with d. Residues, ends and D or L forms follow the SMILES beside them. Dap = NC[C@H](N)C(=O)O

What was measured:
lysozyme = assay: SDS PAGE electrophoresis of lysozyme incubated with methylglyoxal and inhibitor; type: biochemical; conditions: lysozyme 10 mg/ml, methylglyoxal 10 mM, inhibitor equimolar, 37° C., 48 hours
Procedure: (§1) Ribonuclease A and lysozyme (10 mg/ml) are incubated in the presence of methylglyoxal (10 mM) or in the presence of methylglyoxal and one of the inhibitors according to the present invention in an equimolar quantity at 37° C. After 48 hours of incubation, the proteins are analyzed by polyacrylamide gel electrophoresis (8%-16% SDS PAGE gel).

Human insulin = assay: Modification of insulin by methylglyoxal (HPLC); type: biochemical; conditions: insulin 0.034 mM, methylglyoxal 3.4 mM, scavenger 4.08 mM, pH 7.45, 37° C.
Procedure: FIG. 1 presents the comparative effects of dicarbonyl scavengers in the form of dihydrochloride according to the present invention and the comparison with DAPA on the modification of insulin (Ins) by methylglyoxal (MG). The percentage of insulin is indicated following incubation with methylglyoxal in the presence or absence of dicarbonyl scavengers. Insulin (0.034 mM) is incubated in vitro in a 10 mM phosphate buffer, pH 7.45 (containing 0.1 M NaCl) with methylglyoxal (3.4 mM) in the presence of dicarbonyl scavengers (4.08 mM) for 21 hours at 37° C. Insulin concentration is measured by HPLC (same conditions as in FIG. 3).
FIGS. 3 to 8 present the results obtained by HPLC for two compounds according to the present invention, L-DAPA-L-Leu (example 1) and L-DAPA-L-Val (example 23), on insulin modifications induced by methylglyoxal. It can be observed that these modifications are prevented. The HPLC conditions are as follows: C-18, Symmetry 300 (4.6×250 mm) column, injection volume 100 μl of reaction mixture; flow 1 ml/min; temperature 40° C.; solvent A: H2O+0.1% TFA; solvent B: 60/40 CH3CN/H2O+0.1% TFA; linear gradient of 50% B to 55% B in 15 minutes; detection: UV at 215 nm: PDA (chromatograms extracted at 220 nm).
Human insulin (Ins) is incubated with methylglyoxal (MG) under physiological conditions. After 24 hours, the insulin is completely modified, as illustrated in FIG. 1 (Ins+MG).
On the other hand, insulin is incubated with methylglyoxal in the presence of an equimolar quantity of the AGE inhibitors according to the present invention under physiological conditions.

[1] = test system: seven strains of Salmonella (six mixed strains, strain TA98); assay: Ames test with and without human liver S9 fractions; type: cell-based; set-up: key to Six mixed strains / Strain TA98: −: non-mutagenic; +: mutagenic; conditions: for Six mixed strains / Strain TA98: mixture with methylglyoxal, 10/1/0.1 μM
Procedure: An Ames test was performed with L-DAPA-L-Leu (example 1) and L-DAPA-L-Val (example 23) alone and in combination with methylglyoxal on human liver S9 fractions and on seven strains of Salmonella.
The concentrations used in the Ames test were as follows: • L-DAPA-L-Leu alone or L-DAPA-L-Val alone: 10 μM, 1 μM and 0.1 μM. • L-DAPA-L-Leu/methylglyoxal mixture or L-DAPA-L-Val/methylglyoxal mixture: 10 μM, 1 μM and 0.1 μM. • Methylglyoxal: 10 μM.

ribonuclease A = assay: Enzymatic activity of ribonuclease A after treatment with methylglyoxal and inhibitors (methylene blue RNA staining); type: biochemical; conditions: ribonuclease A treated with methylglyoxal (MG) + inhibitor in equimolar quantity, 37° C.; control RNase 100, RNase + methylglyoxal 10.11%
Procedure: as §1
The enzymatic activity of ribonuclease A after treatment with methylglyoxal and the various inhibitors according to the present invention is measured using the methylene blue RNA staining technique of Greiner-Stöffele et al. (Anal. Biochem. (1996) 240, 24).

somatostatin-14 = assay: Somatostatin-14 modifications induced by methylglyoxal (HPLC); type: biochemical; conditions: somatostatin-14 0.03 mm, methylglyoxal 3.6 mM, compound 4.3 mM, 24 hours at 37° C.
Procedure: FIGS. 9 and 10 present the results obtained by HPLC for two compounds according to the present invention, L-DAPA-L-Leu (example 1) and L-DAPA-L-Val (example 23), on somatostatin-14 modifications induced by methylglyoxal. HPLC conditions are as follows: C-18, Symmetry 300 (4.6×250 mm) column, injection volume 100 μl of reaction mixture; flow 1 ml/min; solvent A: H2O+0.1% TFA; solvent B: 80/20 CH3CN/H2O+0.1% TFA; linear gradient: from 20% B to 60% B in 15 minutes and isocratic from 60% B for 10 minutes; ambient temperature; detection: PDA (chromatograms extracted at 215 nm).
In these figures, (a) represents the results of somatostatin-14 alone; (b) represents the results of somatostatin-14+methylglyoxal; (c) represents the results of somatostatin-14+methylglyoxal+L-DAPA-L-Val (example 23) and (d) represents the results of somatostatin-14+methylglyoxal+L-DAPA-L-Leu (example 1).

RNase A = RNase A modifications induced by methylglyoxal (HPLC); type: biochemical; conditions: RNase A 0.08 mM, methylglyoxal 32 mM, compound 38 mM, 21 hours at 37° C.
Procedure: FIGS. 11 to 13 present the results obtained by HPLC for three compounds according to the present invention, L-DAPA-L-Ile (example 18), L-DAPA-L-Val (example 23) and L-DAPA-L-Leu (example 1), on RNase A modifications induced by methylglyoxal. HPLC conditions are as follows: C-18, Symmetry 300 (4.6×250 mm) column, injection volume 100 μl of reaction mixture diluted to 1/10; flow 1 ml/min; temperature 40° C.; solvent A: H2O+0.1% TFA; solvent B: 60/40 CH3CN/H2O+0.1% TFA; linear gradient of 20% B to 80% B in 20 minutes; detection: UV at 215 nm: PDA (chromatograms extracted at 215 nm).

**Q.** For CC(C)C[C@H](NC(=O)[C@@H](N)CN)C(=O)O [example 1, L-DAPA-L-Leu.2HCl] (H-[Dap]-Leu-OH), which “protection from structural modifications (dimer form) caused by methylglyoxal” value (lysozyme) is on record?
**A.** provides protection

**Q.** And the “modification of insulin by methylglyoxal” value (Human insulin)?
**A.** prevented

**Q.** What about the Six mixed strains ([1]; Human S9: No) of the same molecule?
**A.** −

**Q.** And the “Strain TA98” value ([1]; Human S9: No)?
**A.** −

**Q.** What about the Six mixed strains ([1]; Human S9: Yes (metabolites)) of the same molecule?
**A.** −

**Q.** And the “Strain TA98” value ([1]; Human S9: Yes (metabolites))?
**A.** −

**Q.** And the “mutagenicity” value ([1]; alone or in combination with methylglyoxal, TA98, mixed strains, human liver S9 fractions)?
**A.** neither substance (L-DAPA-L-Leu or L-DAPA-L-Val) was mutagenic

**Q.** And the “Enzymatic activity (%)” value (ribonuclease A)?
**A.** 93.91%

**Q.** And the “somatostatin-14 modifications induced by methylglyoxal” value (somatostatin-14)?
**A.** prevent the modifications induced by methylglyoxal

**Q.** And the “RNase A modifications induced by methylglyoxal” value (RNase A)?
**A.** prevent the modifications to RNase A
